Laboratory results taken from patent publication US6319951A, “Use of 3-amino-4-hydroxybenzoic acid for the treatment of retroviral infections” (priority 1996, dated 2001).
≈ marks a conversion by molar mass, not a printed value. Where “and” joins values, the source holds several entries; their conditions need not be identical. Equal values may be shown once. Read-outs that look alike come from different tables or passages of the source.

Columns and labels:
hyaluronidase = conditions: acrosomal proteolytic enzyme of sperm; cited from earlier work
HIV [1] = assay: inactivation of HIV cultivated in human lymphocytes (minimum inhibitory concentration); assay type: cell-based
HIV [2] = assay: T-cell observations after HIV/AIDS treatment (Example 4); assay type: in vivo
Protocol: Symptomatic and asymptomatic seropositive individuals were treated with 3-amino-4-hydroxybenzoic acid (200 mg tds orally) for two weeks. CD4 :CD8 ratios were taken before and three months after treatment. […] Based on its inherent ability to inactivate HIV in vitro it is probable that 3-amino-4-hydroxybenzoic acid suppresses or inactivates the HIV in affected individuals.
The individuals were taken randomly as they became available (3 male and 4 female). Their T-cell counts were taken before treatment and three months after treatment. They were given 3-amino-4-hydroxybenzoic acid as 200 mg tds orally and followed on daily basis as they took 3-amino-4-hydroxybenzoic acid for two weeks. Thereafter they were followed weekly for the first month after finishing the course of medicine and then monthly.

water solubility = assay type: physicochemical
HIV [3] = assay: antimicrobial activity, HIV
Herpes simplex = assay: antimicrobial activity, Herpes simplex
HIV [4] = assay type: in vivo
Protocol: Clinical observations on HIV/AIDS Patients Treated with 3-amino-4-hydroxybenzoic acid
Treatment was administered orally to each patient taking 200 mg of 3-amino-4-hydroxybenzoic acid tds for 14 days.

human lymphocytes = assay: adverse effect on human lymphocytes in HIV culture; assay type: cell-based; conditions: at minimum concentration of 0.5 mg/l
HIV [5] = assay: electron microscopy of patient blood (Example 6); assay type: in vivo; conditions: two patients, before treatment and 28 days after
From the text: (§1) Blood samples were taken for electron microscopy and HIV culture before and after treatment of two patients.

HIV [6] = assay type: in vivo; remark: listed apart in the source
Trichomona vapinalis = assay: antimicrobial activity, protozoan Trichomonas
gonorrhoeae = assay: patient with gonorrhoea treated orally; assay type: in vivo, human; conditions: 1.6 g orally
Protocol: When a patient, with a frankly discharging gonorrhoeae was given 1.6 g of 3-amino-4-hydroxybenzoic acid orally, the discharge ceased in 12 hours but recurred in the 24th hour after treatment.

safety study on rabbit = assay type: in vivo; conditions: intraperitoneal, 9 days, up to 133.3 mg/kg
Treponema pallidum = assay: antimicrobial activity, Treponema pallidum
Candida albicans = assay: antimicrobial activity, fungi, Candida albicans
Escherchia coli = assay: antimicrobial activity, Escherichia coli
safety study on chicken = assay type: in vivo; conditions: oral, 9 days, up to 400.6 mg/kg
From the text: A chicken of 500 g was used and 3-amino-4-hydroxybenzoic acid in water was forced down the esophagus using a plastic syringe over 9 days.

HIV [7] = assay: HIV culture from patient blood (Example 6); assay type: in vivo
From the text: as §1

HIV [8] = assay: dipping HIV into aqueous 3-amino-4-hydroxybenzoic acid; conditions: aqueous solution, 30 seconds
From the text: This duration is too short to be an inhibition of protein synthesis. It could only be an irreversible binding of the viral coat at gp120, gp160 or gp41 thereby making the virus fail to attach itself to the CD4 surface markers of target cells. […] It may also inactivate the lytic enzyme essential for HIV entry into the host cell as it does for hyaluronidase.

[9] = adverse effects in HIV/AIDS patients; assay type: in vivo, human
From the text: Our experience in using 3-amino-4-hydroxybenzoic acid to treat HIV/AIDS has shown only one non-uniform adverse effect. […] In the case of 3-amino-4-hydroxybenzoic acid, this occasional side effect can be averted by feeding before administration, giving a flavouring agent before administration or preparing the medicament in capsule form. The nausea is temporary. The medicament is preferably taken for approximately 28 days.

HIV [10] = assay: trial based on clinical and haematological findings (Example 5); assay type: in vivo
From the text: In addition, trial based on clinical and haematological findings have shown the following observations.

[11] = 200 mg tds orally, two weeks, before vs three months after treatment
[12] = per patient, 200 mg tds orally, two weeks, three months after treatment
[13] = 200 mg tds oral, 14 days, patient three (1)
[14] = patient three (8), in 6 months of treatment

Compound: Nc1cc(C(=O)O)ccc1O [3-amino-4-hydroxybenzoic acid]
- inactivation of hyaluronidase (hyaluronidase): inactivates an achrosomal proteolytic enzyme hyaluronidase
- MIC (HIV [1]; Human immunodeficiency virus 1, HIV cultivated in human lymphocytes, read-out: minimum inhibitory concentration / minimum concentration inactivating cultivated HIV): 0.5 mg/L (≈ 3.27 µM)
- inactivation of cultivated HIV (HIV [1]; in vitro, cultivated HIV): completely inactivate cultivated HIV
- immunological improvement (HIV [2]; 200 mg tds orally, two weeks): there is immunological improvement
- mean increase in CD4 (HIV [2]; 200 mg tds orally, two weeks, 7 patients): 208
- CD4:CD8 ratio change (HIV [2]; [11]): rose
- CD8 change (HIV [2]; [11]): decreased to varying levels in all of the individuals
- Increase in CD4 after treatment (HIV [2]; 200 mg tds orally, two weeks, three months after treatment, per patient): 531 CD4/mm^3 and 72 CD4/mm^3 and 160 CD4/mm^3 and 40 CD4/mm^3 and 184 CD4/mm^3 and 102 CD4/mm^3 and 465 CD4/mm^3
- CD4/CD8 Ratio Before Treatment (HIV [2]; per patient, baseline): 0.845 and 0.00 and 0.7 and 0.3 and 0.29 and 0.9
- CD4 Count Before Treatment (HIV [2]; per patient, baseline): 561 CD4/mm3 and 50 CD4/mm3 and 650 CD4/mm3 and 460 CD4/mm3 and 300 CD4/mm3 and 1122 CD4/mm3 and 1014 CD4/mm3
- CD4/CD8 Ratio After Treatment (HIV [2]; [12]): 1.632 and 0.06 and 2.2 and 0.2 and 0.564 and 0.78 and 1.11
- CD4 Count After Treatment (HIV [2]; [12]): 1092 CD4/mm3 and 112 CD4/mm3 and 810 CD4/mm3 and 500 CD4/mm3 and 484 CD4/mm3 and 1326 CD4/mm3 and 1479 CD4/mm3
- solubility in water (water solubility): not readily soluble in water
- antimicrobial activity (HIV [3]): established
- antimicrobial activity (Herpes simplex): established
- body weight after treatment (HIV [4]; [13]): 48 kg
- haemoglobin after treatment (HIV [4]; [13]): 16%
- lymphocytes (relative) after treatment (HIV [4]; [13]): 49%
- body weight before treatment (HIV [4]; 200 mg tds oral, 14 days, patient three (1), baseline): 44 kg
- clinical, haematological and weight gain assessment (HIV [4]; about 20 patients): found to improve
- average weight gain (HIV [4]; average patient, within the first month): 5 kg
- signs and symptoms (HIV [4]; patient five (3), after 2 weeks): the signs and symptoms were over
- standing and walking unaided (HIV [4]; patient four (9)): By the third day they could stand and walk unaided
- time until diarrhoea ceased (HIV [4]; patient four (9)): 24 h
- vomiting and diarrhoea (HIV [4]; patient four (9)): over by the third day
- health at follow-up (HIV [4]; patient four (9), 22.1.95 and May 19th 1995): in perfect health on 22.1.95
- serum iron (HIV [4]; patient four (9), all along the time of treatment): normal
- wounds healed, signs and symptoms over (HIV [4]; patient four (9), by end of second week): wounds had healed and all their signs and symptoms were over
- haemoglobin rise (HIV [4]; patient four (9), by the sixth month): 1 g %
- weight gain (HIV [4]; patient four (9), in six months): 1 kg
- haemoglobin after treatment (HIV [4]; patient four (9), sixth month): 11.9%
- oral ulcers, genital wounds and lymph node enlargement (HIV [4]; patient one (2)): over by the second week of treatment
- time until able to go to the toilet and bathroom unaided (HIV [4]; patient one (2)): ≤ 5 days
- body weight before treatment (HIV [4]; patient one (2), baseline): 41 kg
- weight gain (HIV [4]; patient one (2), in 3 weeks): 2.5 kg
- rashes and pigmentation (HIV [4]; patient six (6), in 2 weeks of treatment): The rashes subsided and the pigmentation returned to normal skin colour
- time until signs and symptoms were over (HIV [4]; patient three (1)): six
- haemoglobin before treatment (HIV [4]; patient three (1), baseline): 11.69%
- lymphocytes (relative) before treatment (HIV [4]; patient three (1), baseline): 39%
- body weight before treatment (HIV [4]; patient three (8), baseline): 44 kg
- haemoglobin before treatment (HIV [4]; patient three (8), baseline): 12.1%
- functional recovery (house work, shopping) (HIV [4]; patient two (7), in 5 days of treatment): able to do their house work, go for salary from their place of work and even go to the market for shopping
- adverse effect to the lymphocytes (human lymphocytes): without any adverse effect to the lymphocytes
- HIV particles by electron microscopy (HIV [5]): HIV particles before treatment but not 28 days after treatment
- hair (HIV [6]; patient four (9), by 6 weeks of treatment): their thin silk hair had reverted to the normal Afro type
- body weight after treatment (HIV [6]; [14]): 53 kg
- haemoglobin after treatment (HIV [6]; [14]): 14.9%
- antimicrobial activity (Trichomona vapinalis): established
- bacteriostatic effect (gonorrhoeae): bacteriostatic
- time to cessation of gonorrhoeal discharge (gonorrhoeae): 12 h
- adverse effects (safety study on rabbit): no adverse effects observed
- antimicrobial activity (Treponema pallidum): established
- antimicrobial activity (Candida albicans): established
- antimicrobial activity (Escherchia coli): established
- adverse effects (safety study on chicken): no adverse effects observed
- eradication of HIV from patients' blood (HIV [7]; 3 mg/kg tds, 28 days): eradicates HIV from the patients blood
- HIV culture growth (HIV [7]; two patients, before treatment and after 28 days of treatment): grew HIV but not after 28 days of treatment
- infectivity of HIV after dipping (HIV [8]): renders the virus uninfective
- adverse effect ([9]; HIV/AIDS patients): nausea and vomiting in the very weak
- side effects noted ([9]; chicken, rabbit, sheep and human volunteers): Only tolerable nausea and occasional vomiting
- time until anorexia subsides (HIV [10]; human, in vivo): ≤ 5 days
- time until bed ridden patients can stand and do light work (HIV [10]; human, in vivo): ≤ 2 weeks
- time until diarrhoea stops (HIV [10]; human, in vivo): 1-3
- time until fever and weakness subside (HIV [10]; human, in vivo): ≤ 1 week
- time until haemoglobin normalizes (HIV [10]; human, in vivo): ≤ 1 month
- time until poor vision normalizes (HIV [10]; human, in vivo): ≤ 1 week
- time until rashes and hyper pigmentation of scars subside (HIV [10]; human, in vivo): ≤ 5 days
- time until sleep normalizes in intensity and rhythm (HIV [10]; human, in vivo): ≤ 2 days
- time until vomiting ceases (HIV [10]; human, in vivo): ≤ 2 days
- time until oral and anogenital ulcers heal (HIV [10]; human, in vivo, po): ≤ 1 week
- average weight gain (HIV [10]; within the first month of treatment): 5 kg
